Data: ChEMBL document CHEMBL1201862, “PubChem BioAssay data set” (2004)
The source made the active and inactive calls.

Experiments:
SUMO-activating enzyme [1] = biological target: T1, SUMO-activating enzyme (Homo sapiens, UniProt Q9UBT2); experiment: inhibitors of in vitro SUMOylation cascade, primary screen, biochemical, HTRF, uHTS (AID 2006); type: protein-complex assay
[2] = NIH-3T3 fibroblast cytotoxicity, dose response, cytotoxicity control, cell-based, fluorescence, Alamar Blue, secondary assay (AID 2327); type: functional;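 also: NIH-3T3 mouse fibroblasts cultured with fluconazole at 8 µg/mL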
Albumin = Albumin (Bos taurus, UniProt P02769); experiment: Counterscreen for inhibitors of T-cell receptor (TCR)-CD3 interaction: Fluorescence-based biochemical high throughput dose response assay to identify inhibitors of T-cell receptor (TCR)-CD3 interaction using a TAMRA-labeled BSA probe.; type: functional
Caspase-3 = biological target: T2, Caspase-3 (Homo sapiens, UniProt P42574); type: functional;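 also: Dose-response selectivity test against caspase-3 for candidate inhibitors of sentrin-specific proteases (SENPs)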
T2 sequence (P42574 whole entry): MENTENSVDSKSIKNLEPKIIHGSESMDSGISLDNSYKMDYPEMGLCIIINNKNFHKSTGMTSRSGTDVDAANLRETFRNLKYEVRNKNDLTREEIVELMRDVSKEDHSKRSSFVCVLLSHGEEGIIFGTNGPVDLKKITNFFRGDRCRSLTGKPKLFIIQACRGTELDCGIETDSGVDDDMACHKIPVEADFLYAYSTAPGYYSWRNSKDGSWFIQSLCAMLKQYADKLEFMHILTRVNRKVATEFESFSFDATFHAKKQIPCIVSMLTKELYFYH

[3] = biological target: T3, Long-chain-fatty-acid--AMP ligase FadD28 (Mycobacterium tuberculosis, UniProt P9WQ59); experiment: Fluorescence polarization aasay to screen for inhibitors that compete for the binding of FadD28 to a bisubstrate Measured in Biochemical System Using Plate Reader - 2147-01_Inhibitor_Dose_CherryPick_Activity.; type: functional, Mycobacterium tuberculosis H37Rv
T3 sequence (P9WQ59 whole entry): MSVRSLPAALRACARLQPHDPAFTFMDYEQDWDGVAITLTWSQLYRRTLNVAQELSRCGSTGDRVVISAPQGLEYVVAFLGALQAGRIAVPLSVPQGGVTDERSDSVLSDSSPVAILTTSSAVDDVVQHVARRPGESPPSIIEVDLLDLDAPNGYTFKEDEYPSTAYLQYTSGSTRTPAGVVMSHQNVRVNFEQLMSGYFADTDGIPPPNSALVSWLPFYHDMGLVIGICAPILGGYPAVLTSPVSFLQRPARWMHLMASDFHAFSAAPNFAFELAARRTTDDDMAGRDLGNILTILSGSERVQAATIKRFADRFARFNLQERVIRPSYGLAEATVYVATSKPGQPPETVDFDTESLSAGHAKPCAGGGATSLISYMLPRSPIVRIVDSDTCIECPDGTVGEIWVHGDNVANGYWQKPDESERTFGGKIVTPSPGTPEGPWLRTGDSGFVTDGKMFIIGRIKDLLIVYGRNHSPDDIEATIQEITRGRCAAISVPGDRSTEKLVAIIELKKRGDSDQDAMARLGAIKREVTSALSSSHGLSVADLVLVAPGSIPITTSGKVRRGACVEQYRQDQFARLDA

SUMO-activating enzyme [4] = biological target: T1, SUMO-activating enzyme; experiment: SUMOylation inhibitor hit validation, confirmation, SUMOylation inhibitor project, biochemical, AlphaScreen (AID 2018); type: functional
[5] = biological target: T4, Sentrin-specific protease 8 (Homo sapiens, UniProt Q96LD8); type: functional;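 also: luminescence read-out of SENP8 inhibition, dose-response confirmation following an ultra-high-throughput screen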
T4 sequence (Q96LD8 whole entry): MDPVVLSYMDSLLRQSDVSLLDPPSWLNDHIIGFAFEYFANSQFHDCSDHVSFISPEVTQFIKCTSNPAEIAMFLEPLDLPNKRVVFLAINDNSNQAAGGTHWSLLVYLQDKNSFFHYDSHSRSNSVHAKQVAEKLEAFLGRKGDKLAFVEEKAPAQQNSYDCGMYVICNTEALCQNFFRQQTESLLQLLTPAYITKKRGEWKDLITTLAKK

[6] = biological target: T5, Sentrin-specific protease 7 (Homo sapiens, UniProt Q9BQF6); type: functional;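 also: Luminescence-based dose-response confirmation of ultra-high-throughput screening hits, measuring inhibition of SENP7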
T5 sequence (Q9BQF6 whole entry): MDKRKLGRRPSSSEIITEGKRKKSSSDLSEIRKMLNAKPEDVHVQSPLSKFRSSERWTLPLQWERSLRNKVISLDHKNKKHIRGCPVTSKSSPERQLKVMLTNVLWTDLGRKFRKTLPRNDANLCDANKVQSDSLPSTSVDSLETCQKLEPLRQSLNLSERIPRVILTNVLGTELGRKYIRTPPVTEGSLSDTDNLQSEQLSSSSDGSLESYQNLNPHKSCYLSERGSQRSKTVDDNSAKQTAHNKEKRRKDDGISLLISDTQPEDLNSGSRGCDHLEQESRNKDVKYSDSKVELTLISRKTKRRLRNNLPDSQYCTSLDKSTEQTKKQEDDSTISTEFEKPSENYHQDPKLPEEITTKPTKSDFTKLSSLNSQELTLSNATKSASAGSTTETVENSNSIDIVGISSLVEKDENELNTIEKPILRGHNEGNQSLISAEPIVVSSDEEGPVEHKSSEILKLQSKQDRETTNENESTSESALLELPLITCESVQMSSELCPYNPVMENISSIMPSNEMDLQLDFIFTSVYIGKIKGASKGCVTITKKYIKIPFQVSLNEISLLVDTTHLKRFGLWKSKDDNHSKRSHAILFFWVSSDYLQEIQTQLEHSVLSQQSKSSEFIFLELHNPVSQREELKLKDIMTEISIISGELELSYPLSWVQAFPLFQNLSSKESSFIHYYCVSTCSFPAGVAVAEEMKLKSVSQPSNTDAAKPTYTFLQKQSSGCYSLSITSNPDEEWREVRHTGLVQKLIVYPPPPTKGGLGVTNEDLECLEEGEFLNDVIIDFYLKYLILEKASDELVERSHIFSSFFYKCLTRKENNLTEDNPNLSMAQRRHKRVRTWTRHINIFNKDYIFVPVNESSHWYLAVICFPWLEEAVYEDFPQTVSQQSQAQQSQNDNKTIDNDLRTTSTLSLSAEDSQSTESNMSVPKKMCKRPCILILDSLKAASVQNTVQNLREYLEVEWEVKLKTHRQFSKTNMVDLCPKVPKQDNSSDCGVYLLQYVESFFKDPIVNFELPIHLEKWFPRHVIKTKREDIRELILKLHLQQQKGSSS

INS1 = experiment: beta cell apoptosis inhibitors, cytokine rescue, dose response, luminescence, retest (AID 449756); type: functional, cell-based; details: Rattus norvegicus;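 also: cell death triggered by IL-1 beta plus TNF-alpha plus IFN-gamma mixture; protective hits raise ATP signal compared with cytokine alone wells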
[7] = biological target: T6, Sentrin-specific protease 6 (Homo sapiens, UniProt Q9GZR1); type: functional;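 also: Luminescence-based dose-response confirmatory assay of SENP6 inhibition, following up an ultra-high-throughput screen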
T6 sequence (Q9GZR1 whole entry): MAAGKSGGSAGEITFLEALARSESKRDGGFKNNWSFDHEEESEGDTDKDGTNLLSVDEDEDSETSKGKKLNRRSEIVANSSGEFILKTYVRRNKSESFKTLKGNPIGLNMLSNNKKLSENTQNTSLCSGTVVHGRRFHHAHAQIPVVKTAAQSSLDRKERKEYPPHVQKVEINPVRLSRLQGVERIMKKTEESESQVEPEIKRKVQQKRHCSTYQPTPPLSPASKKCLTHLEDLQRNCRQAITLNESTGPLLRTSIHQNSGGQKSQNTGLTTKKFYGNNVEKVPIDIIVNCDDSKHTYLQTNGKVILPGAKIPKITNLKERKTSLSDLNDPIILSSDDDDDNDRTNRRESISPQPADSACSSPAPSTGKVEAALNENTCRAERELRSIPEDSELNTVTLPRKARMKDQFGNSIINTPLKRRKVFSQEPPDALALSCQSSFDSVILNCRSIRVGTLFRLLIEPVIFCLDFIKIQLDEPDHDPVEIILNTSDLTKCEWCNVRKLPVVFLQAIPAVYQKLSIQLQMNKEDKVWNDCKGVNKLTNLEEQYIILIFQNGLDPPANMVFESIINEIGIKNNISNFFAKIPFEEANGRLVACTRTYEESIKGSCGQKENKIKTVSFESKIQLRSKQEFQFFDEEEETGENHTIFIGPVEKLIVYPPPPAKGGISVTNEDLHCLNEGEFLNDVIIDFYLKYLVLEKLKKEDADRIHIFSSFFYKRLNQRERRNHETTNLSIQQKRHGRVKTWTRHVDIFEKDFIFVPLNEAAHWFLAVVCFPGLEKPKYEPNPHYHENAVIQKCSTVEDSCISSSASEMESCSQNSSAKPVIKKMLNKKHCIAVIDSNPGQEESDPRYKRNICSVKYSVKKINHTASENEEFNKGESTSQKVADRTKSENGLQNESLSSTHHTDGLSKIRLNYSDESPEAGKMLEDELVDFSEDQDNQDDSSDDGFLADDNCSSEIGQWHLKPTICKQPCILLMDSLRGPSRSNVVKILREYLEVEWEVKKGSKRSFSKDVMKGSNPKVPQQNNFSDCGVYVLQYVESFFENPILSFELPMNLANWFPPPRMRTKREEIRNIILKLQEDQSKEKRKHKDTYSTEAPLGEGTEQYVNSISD

[8] = C. albicans growth with fluconazole, confirmation, fluorescence, retest (AID 2467); type: functional, cell-based
[9] = biological target: Induced myeloid leukemia cell differentiation protein Mcl-1 (Homo sapiens, UniProt Q07820); type: functional
[10] = biological target: T7, Histone-lysine N-methyltransferase NSD2 (Homo sapiens, UniProt O96028); type: biochemical
T7 sequence (O96028 whole entry): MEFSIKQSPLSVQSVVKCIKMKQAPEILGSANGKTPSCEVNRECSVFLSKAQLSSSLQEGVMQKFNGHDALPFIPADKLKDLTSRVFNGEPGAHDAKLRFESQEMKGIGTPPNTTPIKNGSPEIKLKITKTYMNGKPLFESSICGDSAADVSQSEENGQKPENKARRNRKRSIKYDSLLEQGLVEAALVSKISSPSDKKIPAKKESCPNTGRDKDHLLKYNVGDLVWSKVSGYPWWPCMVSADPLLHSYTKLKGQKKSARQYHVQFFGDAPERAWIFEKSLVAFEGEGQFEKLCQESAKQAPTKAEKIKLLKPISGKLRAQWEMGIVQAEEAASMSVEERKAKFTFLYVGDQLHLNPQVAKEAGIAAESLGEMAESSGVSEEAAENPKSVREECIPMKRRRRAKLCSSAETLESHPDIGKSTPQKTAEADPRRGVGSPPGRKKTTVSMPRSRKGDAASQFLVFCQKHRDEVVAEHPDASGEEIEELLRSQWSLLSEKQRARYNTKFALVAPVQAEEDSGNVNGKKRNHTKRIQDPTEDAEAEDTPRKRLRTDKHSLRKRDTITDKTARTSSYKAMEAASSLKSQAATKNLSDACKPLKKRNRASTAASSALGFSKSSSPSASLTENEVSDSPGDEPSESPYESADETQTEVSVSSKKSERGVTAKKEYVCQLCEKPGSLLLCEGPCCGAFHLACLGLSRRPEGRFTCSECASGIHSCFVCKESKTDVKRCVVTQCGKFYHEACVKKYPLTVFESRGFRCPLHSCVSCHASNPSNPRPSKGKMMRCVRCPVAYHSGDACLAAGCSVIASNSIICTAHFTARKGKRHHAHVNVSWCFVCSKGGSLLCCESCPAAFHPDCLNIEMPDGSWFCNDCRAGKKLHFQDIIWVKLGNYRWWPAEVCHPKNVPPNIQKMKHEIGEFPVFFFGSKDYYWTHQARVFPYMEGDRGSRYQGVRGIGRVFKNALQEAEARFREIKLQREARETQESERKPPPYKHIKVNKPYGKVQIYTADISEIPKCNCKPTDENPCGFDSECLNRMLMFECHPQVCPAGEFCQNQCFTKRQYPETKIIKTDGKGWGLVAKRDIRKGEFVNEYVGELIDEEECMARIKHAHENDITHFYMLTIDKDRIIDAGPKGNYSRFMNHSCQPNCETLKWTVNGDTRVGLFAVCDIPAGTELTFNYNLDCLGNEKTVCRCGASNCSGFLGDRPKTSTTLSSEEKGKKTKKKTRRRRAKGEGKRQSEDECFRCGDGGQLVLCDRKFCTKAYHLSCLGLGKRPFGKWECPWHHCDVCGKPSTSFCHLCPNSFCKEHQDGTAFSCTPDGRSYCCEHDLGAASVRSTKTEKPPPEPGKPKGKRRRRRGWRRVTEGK

[11] = biological target: T8, Rac GTPase-activating protein 1 (Homo sapiens, UniProt Q9H0H5); experiment: MgcRacGAP GTPase-activating activity inhibitors, confirmation, biochemical, ADP Hunter fluorescence, primary and confirmatory (AID 624330); type: functional
T8 sequence (Q9H0H5 whole entry): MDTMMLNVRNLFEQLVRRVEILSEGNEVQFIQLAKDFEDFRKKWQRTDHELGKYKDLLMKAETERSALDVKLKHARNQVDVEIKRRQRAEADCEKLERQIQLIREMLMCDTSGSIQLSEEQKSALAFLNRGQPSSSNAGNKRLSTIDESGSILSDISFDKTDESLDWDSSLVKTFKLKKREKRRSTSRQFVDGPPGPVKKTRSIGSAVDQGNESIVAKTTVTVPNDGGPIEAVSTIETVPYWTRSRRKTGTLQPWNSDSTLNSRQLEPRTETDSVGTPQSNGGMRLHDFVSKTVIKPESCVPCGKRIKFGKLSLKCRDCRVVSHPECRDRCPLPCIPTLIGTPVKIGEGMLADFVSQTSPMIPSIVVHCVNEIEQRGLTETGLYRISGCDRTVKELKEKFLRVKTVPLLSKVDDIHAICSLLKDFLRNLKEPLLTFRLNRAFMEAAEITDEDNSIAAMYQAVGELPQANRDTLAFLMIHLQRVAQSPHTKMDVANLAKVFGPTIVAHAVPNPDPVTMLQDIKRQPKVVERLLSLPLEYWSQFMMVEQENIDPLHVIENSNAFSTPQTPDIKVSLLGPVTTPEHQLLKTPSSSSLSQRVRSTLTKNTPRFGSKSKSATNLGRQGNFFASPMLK

Nonstructural protein 1 = Nonstructural protein 1 (Influenza A virus, UniProt Q194T2); type: functional, Influenza A virus (A/California/07/2009(H1N1))
[12] = biological target: Eukaryotic translation initiation factor 4E (Mus musculus, UniProt P63073); experiment: eIF4E–eIF4G protein interaction inhibitors, dose response, biochemical, TR-FRET (AID 855); type: functional;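 also: potency for disrupting eIF4E binding to eIF4GI seen as loss of FRET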
Large T antigen = Large T antigen (Simian virus 40, UniProt P03070); type: functional, Betapolyomavirus macacae;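 also: Confirmatory-stage PubChem screen for compounds that inhibit SV40 T antigen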
Sequence of Large T antigen (P03070 whole entry): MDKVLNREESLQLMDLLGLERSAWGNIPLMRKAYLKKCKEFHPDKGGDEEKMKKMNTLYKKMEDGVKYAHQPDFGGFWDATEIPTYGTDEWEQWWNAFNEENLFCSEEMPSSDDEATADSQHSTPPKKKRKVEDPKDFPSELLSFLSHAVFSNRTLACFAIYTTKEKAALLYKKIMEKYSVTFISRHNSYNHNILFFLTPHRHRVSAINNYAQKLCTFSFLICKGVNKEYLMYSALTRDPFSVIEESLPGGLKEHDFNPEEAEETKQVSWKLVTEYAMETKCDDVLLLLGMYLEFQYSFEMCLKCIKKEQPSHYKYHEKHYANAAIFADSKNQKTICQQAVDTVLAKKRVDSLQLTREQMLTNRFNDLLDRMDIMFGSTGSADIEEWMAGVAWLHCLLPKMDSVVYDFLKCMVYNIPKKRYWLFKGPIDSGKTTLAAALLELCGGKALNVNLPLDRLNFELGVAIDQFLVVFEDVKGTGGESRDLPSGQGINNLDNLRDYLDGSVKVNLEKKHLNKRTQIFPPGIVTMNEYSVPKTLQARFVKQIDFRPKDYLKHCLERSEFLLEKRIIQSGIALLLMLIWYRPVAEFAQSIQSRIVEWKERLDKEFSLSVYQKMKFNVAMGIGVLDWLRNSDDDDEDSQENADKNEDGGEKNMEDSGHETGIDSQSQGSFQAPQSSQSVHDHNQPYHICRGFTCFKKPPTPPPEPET

T1 sequence (Q9UBE0 whole entry): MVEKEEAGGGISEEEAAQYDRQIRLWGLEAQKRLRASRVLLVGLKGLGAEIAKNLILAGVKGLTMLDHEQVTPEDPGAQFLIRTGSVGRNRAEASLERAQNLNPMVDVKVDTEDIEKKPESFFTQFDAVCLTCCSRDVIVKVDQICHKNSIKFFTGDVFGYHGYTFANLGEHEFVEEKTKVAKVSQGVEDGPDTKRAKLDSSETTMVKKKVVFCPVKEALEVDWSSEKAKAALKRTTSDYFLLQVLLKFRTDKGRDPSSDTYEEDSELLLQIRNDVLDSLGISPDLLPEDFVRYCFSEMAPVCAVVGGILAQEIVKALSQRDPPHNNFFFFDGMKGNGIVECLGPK
T1 sequence (Q9UBT2 whole entry): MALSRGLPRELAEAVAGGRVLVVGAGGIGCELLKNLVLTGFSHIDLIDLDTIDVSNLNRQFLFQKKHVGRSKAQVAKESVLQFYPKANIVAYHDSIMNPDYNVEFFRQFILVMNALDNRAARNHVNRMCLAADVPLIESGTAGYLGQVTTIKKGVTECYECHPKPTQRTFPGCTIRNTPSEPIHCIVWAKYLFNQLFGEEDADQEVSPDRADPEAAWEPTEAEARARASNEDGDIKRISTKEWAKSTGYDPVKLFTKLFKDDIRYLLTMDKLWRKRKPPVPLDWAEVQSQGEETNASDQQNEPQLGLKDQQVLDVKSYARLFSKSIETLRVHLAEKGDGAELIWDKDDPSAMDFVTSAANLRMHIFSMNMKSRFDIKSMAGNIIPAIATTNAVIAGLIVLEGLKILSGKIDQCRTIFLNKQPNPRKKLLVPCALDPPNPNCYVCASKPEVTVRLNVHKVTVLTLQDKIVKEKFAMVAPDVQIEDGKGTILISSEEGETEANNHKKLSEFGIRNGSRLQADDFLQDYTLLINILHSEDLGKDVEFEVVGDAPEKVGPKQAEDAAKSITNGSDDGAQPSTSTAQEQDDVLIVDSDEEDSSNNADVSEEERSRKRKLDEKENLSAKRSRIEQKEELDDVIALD
Sequence of Albumin (P02769 whole entry): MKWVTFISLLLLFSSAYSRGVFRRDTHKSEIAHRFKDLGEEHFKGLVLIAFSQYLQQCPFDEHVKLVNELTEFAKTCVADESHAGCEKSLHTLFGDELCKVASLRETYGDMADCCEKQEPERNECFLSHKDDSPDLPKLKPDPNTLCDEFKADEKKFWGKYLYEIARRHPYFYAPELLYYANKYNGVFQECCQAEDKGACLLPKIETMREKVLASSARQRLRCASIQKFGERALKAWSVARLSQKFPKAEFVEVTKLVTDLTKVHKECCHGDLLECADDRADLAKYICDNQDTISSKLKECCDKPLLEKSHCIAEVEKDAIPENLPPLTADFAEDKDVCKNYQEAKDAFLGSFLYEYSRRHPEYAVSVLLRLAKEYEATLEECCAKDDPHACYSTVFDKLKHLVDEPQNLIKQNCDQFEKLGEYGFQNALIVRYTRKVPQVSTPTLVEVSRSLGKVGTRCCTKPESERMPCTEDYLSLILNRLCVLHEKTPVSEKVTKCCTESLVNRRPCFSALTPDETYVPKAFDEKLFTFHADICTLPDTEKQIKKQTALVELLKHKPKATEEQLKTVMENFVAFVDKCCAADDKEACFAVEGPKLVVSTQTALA
Sequence of Nonstructural protein 1 (Q194T2 whole entry): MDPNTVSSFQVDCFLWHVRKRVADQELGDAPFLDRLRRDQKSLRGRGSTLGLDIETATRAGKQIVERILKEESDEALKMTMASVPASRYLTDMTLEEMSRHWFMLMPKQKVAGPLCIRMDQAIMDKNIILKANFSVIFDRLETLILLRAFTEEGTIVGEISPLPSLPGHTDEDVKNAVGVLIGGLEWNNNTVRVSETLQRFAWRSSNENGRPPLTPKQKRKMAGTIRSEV
Sequence of Eukaryotic translation initiation factor 4E (P63073 whole entry): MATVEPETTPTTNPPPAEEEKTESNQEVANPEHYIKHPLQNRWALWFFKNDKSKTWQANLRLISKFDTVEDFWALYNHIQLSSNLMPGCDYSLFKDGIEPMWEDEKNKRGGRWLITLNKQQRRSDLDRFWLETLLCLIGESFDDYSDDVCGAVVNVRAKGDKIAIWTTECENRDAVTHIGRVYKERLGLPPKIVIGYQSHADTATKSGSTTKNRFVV
Sequence of Induced myeloid leukemia cell differentiation protein Mcl-1 (Q07820 whole entry): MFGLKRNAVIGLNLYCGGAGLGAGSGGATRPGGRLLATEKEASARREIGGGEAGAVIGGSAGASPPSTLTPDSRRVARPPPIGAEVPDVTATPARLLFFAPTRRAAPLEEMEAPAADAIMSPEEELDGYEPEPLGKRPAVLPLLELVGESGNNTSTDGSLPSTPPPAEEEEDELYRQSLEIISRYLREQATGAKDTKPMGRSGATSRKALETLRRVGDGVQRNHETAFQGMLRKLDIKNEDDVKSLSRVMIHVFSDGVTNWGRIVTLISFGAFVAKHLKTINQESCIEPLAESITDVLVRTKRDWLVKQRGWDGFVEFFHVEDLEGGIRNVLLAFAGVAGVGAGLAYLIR

Compound	IC50 (SUMO-activating enzyme [1])	EC50 [2]	IC50 (Albumin)	IC50 (Caspase-3)	AC50 [3]	IC50 (SUMO-activating enzyme [4])	IC50 [5]	IC50 [6]	AC50 (INS1)	IC50 [7]	EC50 [8]	IC50 [9]	AC50 [10]	IC50 [11]	IC50 (Nonstructural protein 1)	IC50 [12]	IC50 (Large T antigen)
O=[N+]([O-])c1ccc(O)c(/C=N/NC(=S)Nc2ccc(Cl)cc2Cl)c1	23.1 µM (active)	> 160 µM (inactive)	> 94.1 µM (inactive)	28.3 µM (active)	> 100 µM (inactive)	1.41 µM (active)	7.38 µM (active)	3.08 µM (active)	1.72 µM (active)	3.15 µM (active)	3.32 µM (active)	–	–	–	–	–	–
CN(C)c1ccc(/N=c2/sc3ccccc3n2C)cc1	–	–	–	–	–	–	–	–	–	–	–	40.2 µM (active)	10.4 µM (active)	18.9 µM (active)	23.9 µM (active)	> 64 µM (inactive)	11.4 µM (active)
